The values below come from patent US20110207773A1, “NOVEL PHENYL-QUINOLINE-CARBOXYLIC ACID PYRIDINE DERIVATIVES USEFUL AS MODULATORS OF NICOTINIC ACETYLCHOLINE RECEPTORS” (NEUROSEARCH A/S, priority 2008, published 2011).

The target in series [1] is T1, wild-type nAChR α7 receptors (Homo sapiens, UniProt P36544).
T1 construct: expressed in transfected cells; host or cells: Xenopus laevis oocytes
Description: Positive modulation of nAChR α7 currents in Xenopus laevis oocytes, two-electrode voltage clamp. It counts as cell-based. Conditions: nAChR α7 expressed in Xenopus laevis oocytes, clamped at −60 mV, 100 μM acetylcholine; for Emax: (test-control)/control×100%, read-out: calculated EC50 Imax (maximal modulation of the control response); for EC50: test compound 0.01-31.6 μM, read-out: calculated EC50 (positive modulation of acetylcholine-induced current). The method, then:
In this example the positive modulation of wild-type nAChR α7 receptors by Compounds 4 and 5, representative of the invention, was determined using nAChR α7 receptors heterologously expressed in Xenopus laevis oocytes.
The electrical current through the nAChR α7 channel was measured using conventional two-electrode voltage clamp and nAChR α7 currents were activated by applying pulses of agonist-containing solution onto the nAChR α7 expressing oocyte.
In brief, the oocytes were placed in a recording chambers and continuously super-fused with an Oocyte Ringer (OR) solution containing 90 mM NaCl, 2.5 mM KCl, 2.5 mM CaCl2, 1 mM MgCl2 and 5 mM HEPES (pH adjusted to 7.4). The oocytes were clamped at −60 mV and currents were induced by applying 20 s pulses of 100 μM acetylcholine dissolved in OR. The intervals between the acetylcholine applications were 5 minutes, during which the oocytes were washed with OR. The first three applications were control applications to insure a constant response level of 100 μM acetylcholine. For the subsequent test applications, increasing concentrations (0.01-31.6 μM) of the test compound were applied 30 s before and during the acetylcholine (100 μM) application, which caused a robust increase in the acetylcholine-induced current amplitude.
The positive modulation in the presence of Compound 4 was calculated as (test-control)/control×100% and the concentration response curve for this positive modulation was fitted to the sigmoidal logistic equation: I=Imax/(1+(EC50/[compound])^n), where Imax represents the maximal modulation of the control response, EC50 is the concentration causing a half maximal response, and n is the slope coefficient.

Structures are written as SMILES.

T1 sequence (P36544 23-502): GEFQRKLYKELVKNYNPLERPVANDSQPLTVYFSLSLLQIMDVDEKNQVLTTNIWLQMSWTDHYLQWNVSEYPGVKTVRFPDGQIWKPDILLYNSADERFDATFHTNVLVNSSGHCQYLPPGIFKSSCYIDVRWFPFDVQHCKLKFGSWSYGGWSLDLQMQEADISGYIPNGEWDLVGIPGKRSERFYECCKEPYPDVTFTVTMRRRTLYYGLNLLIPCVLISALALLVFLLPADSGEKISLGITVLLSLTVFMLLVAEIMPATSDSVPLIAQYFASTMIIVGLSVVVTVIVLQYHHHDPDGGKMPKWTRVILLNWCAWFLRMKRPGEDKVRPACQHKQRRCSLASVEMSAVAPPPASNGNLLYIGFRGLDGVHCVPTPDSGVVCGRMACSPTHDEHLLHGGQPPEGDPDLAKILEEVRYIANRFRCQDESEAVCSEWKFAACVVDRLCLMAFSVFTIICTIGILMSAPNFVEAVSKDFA

For `COc1ccc(-c2cc(C(=O)Nc3cccc(F)n3)c3cc(F)ccc3n2)cc1` [Compound 10, 6-Fluoro-2-(4-methoxy-phenyl)-quinoline-4-carboxylic acid (6-fluoro-pyridin-2-yl)-amide], the melting point is 161.2 to 162.9 °C.
For `Cc1ccc(NC(=O)c2cc(-c3ccc(Br)cc3)nc3ccccc23)nc1` [Compound 7, 2-(4-Bromo-phenyl)-quinoline-4-carboxylic acid (5-methyl-pyridin-2-yl)-amide], the melting point fell in the range of 182.4 to 183.7 °C.
`O=C(Nc1cccc(F)n1)c1cc(-c2ccc(O)cc2)nc2c(F)cccc12` [Compound 9, 8-Fluoro-2-(4-hydroxy-phenyl)-quinoline-4-carboxylic acid (6-fluoro-pyridin-2-yl)-amide]: the melting point was 254 to 256 °C.
On the same count and under the same terms, next, `COc1ccc(-c2cc(C(=O)Nc3cccc(F)n3)c3cccc(F)c3n2)cc1` [Compound 8, 8-Fluoro-2-(4-methoxy-phenyl)-quinoline-4-carboxylic acid (6-fluoro-pyridin-2-yl)-amide]: 201.8 to 202.8 °C; `O=C(Nc1cccc(F)n1)c1cc(-c2ccc3c(c2)OCCO3)nc2ccccc12` [Compound 13, 2-(2,3-Dihydro-benzo[1,4]dioxin-6-yl)-quinoline-4-carboxylic acid (6-fluoro-pyridin-2-yl)-amide]: 209.9 to 210.6 °C.
With `COc1ccc(-c2cc(C(=O)Nc3cccc(F)n3)c3ccccc3n2)cc1OC` [Compound 5, 2-(3,4-Dimethoxy-phenyl)-quinoline-4-carboxylic acid (6-fluoro-pyridin-2-yl)-amide], in series [1], the Emax was 197% and the EC50 was 1200 nM.
Turning to `COc1ccc(-c2cc(C(=O)Nc3cccc(F)n3)c3ccccc3n2)cc1` [Compound 4, 2-(4-Methoxy-phenyl)-quinoline-4-carboxylic acid (6-fluoro-pyridin-2-yl)-amide], in series [1], the Emax was 283% and the EC50 was 3700 nM.
